Laboratory results from PubChem BioAssay AID248 (DTP/NCI, 2004).
Inconclusive results and toxic doses are left out. Rule as the data show it: active = T/C of 150% or more; inactive = T/C below 125%.

Tested on: L1210 leukemia ip in BDF1 mice, survival T/C
Assay: NCI In Vivo Anticancer Drug Screen. Data for tumor model L1210 Leukemia (intraperitoneal) in B6D2F1 (BDF1) mice
Conditions: endpoint: mean survival time, higher = longer survival
In short: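 Antitumor effect is assessed in tumor-bearing animals. Survival in the compound arm is compared with a vehicle-dosed control arm and expressed as their quotient.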

[1] = dose: 100.0 mg/kg/injection, schedule: Q01DX009 (ip), vehicle: saline with Tween-80
[2] = dose: 200.0 mg/kg/injection, schedule: Q01DX009 (ip), vehicle: saline with Tween-80
[3] = dose: 400.0 mg/kg/injection, schedule: Q01DX009 (ip), vehicle: saline with Tween-80
[4] = dose: 100.0 mg/kg/injection, schedule: Q04DX003 (ip), vehicle: saline with Tween-80
[5] = dose: 200.0 mg/kg/injection, schedule: Q04DX003 (ip), vehicle: saline with Tween-80
[6] = dose: 400.0 mg/kg/injection, schedule: Q04DX003 (ip), vehicle: saline with Tween-80
[7] = dose: 400.0 mg/kg/injection, schedule: Q04DX002 (ip), vehicle: saline with Tween-80
[8] = dose: 100.0 mg/kg/injection, schedule: Q01DX001 (ip), vehicle: Klucel (hydroxypropylcellulose) (HPC)
[9] = dose: 100.0 mg/kg/injection, schedule: Q04DX003 (ip), vehicle: Klucel (hydroxypropylcellulose) (HPC)
[10] = dose: 200.0 mg/kg/injection, schedule: Q01DX001 (ip), vehicle: Klucel (hydroxypropylcellulose) (HPC)
[11] = dose: 400.0 mg/kg/injection, schedule: Q01DX001 (ip), vehicle: Klucel (hydroxypropylcellulose) (HPC)

Measured: T/C

C=CCc1cc(C)cc([N+](=O)[O-])c1OBr
inactive: dose: 100.0 mg/kg/injection, schedule: Q01DX001 (ip), vehicle: saline with Tween-80 89 % of control | [1] 97 % of control | dose: 200.0 mg/kg/injection, schedule: Q01DX001 (ip), vehicle: saline with Tween-80 88 % of control | [2] 98 % of control | dose: 400.0 mg/kg/injection, schedule: Q01DX001 (ip), vehicle: saline with Tween-80 93 % of control | [3] 93 % of control

CC1=CC(=O)N(N)C1=O
inactive: [1] 102 % of control | [4] 98 % of control | [2] 104 % of control | [5] 100 % of control | [3] 100 % of control | [6] 96 % of control

c1ccc([Si]2(c3ccccc3)[Si](c3ccccc3)(c3ccccc3)[Si](c3ccccc3)(c3ccccc3)[Si](c3ccccc3)(c3ccccc3)[Si](c3ccccc3)(c3ccccc3)[Si]2(c2ccccc2)c2ccccc2)cc1
inactive: [4] 102 % of control | dose: 160.0 mg/kg/injection, schedule: Q04DX002 (ip), vehicle: saline with Tween-80 86 % of control | [5] 94 % of control | [7] 86 % of control | [6] 96 % of control

CNC(=Nc1ccc(NC(=O)c2ccc(C(=O)Nc3ccc(N=C(NC)c4ccccc4)cc3)cc2)cc1)c1ccccc1
inactive: dose: 3.75 mg/kg/injection, schedule: Q01DX Z (ip), vehicle: saline 106 % of control | dose: 7.5 mg/kg/injection, schedule: Q01DX Z (ip), vehicle: saline 100 % of control | dose: 15.0 mg/kg/injection, schedule: Q01DX Z (ip), vehicle: other 91 % of control | dose: 15.0 mg/kg/injection, schedule: Q01DX Z (ip), vehicle: saline 105 % of control

Cc1cc2nc3[nH]c4c(Cl)cc(Cl)cc4c3nc2cc1C
inactive: dose: 100.0 mg/kg/injection, schedule: Q01DX001 (ip), vehicle: saline 91 % of control | dose: 200.0 mg/kg/injection, schedule: Q01DX001 (ip), vehicle: saline 89 % of control | dose: 400.0 mg/kg/injection, schedule: Q01DX001 (ip), vehicle: saline 89 % of control

CC1CC(=O)C2CC(Cl)CCC2(C)C1C (configuration not stated)
inactive: [4] 101 % of control | dose: 150.0 mg/kg/injection, schedule: Q01DX009 (ip), vehicle: Klucel (hydroxypropylcellulose) (HPC) 91 % of control | dose: 225.0 mg/kg/injection, schedule: Q01DX009 (ip), vehicle: Klucel (hydroxypropylcellulose) (HPC) 97 % of control

CC1(C)Cc2cccc(C(O)(CCN3CCCCC3)c3ccccc3)c2O1 (configuration not stated)
inactive: dose: 20.0 mg/kg/injection, schedule: Q01DX001 (ip), vehicle: Klucel (hydroxypropylcellulose) (HPC) 96 % of control | dose: 40.0 mg/kg/injection, schedule: Q01DX001 (ip), vehicle: Klucel (hydroxypropylcellulose) (HPC) 98 % of control | dose: 80.0 mg/kg/injection, schedule: Q01DX001 (ip), vehicle: Klucel (hydroxypropylcellulose) (HPC) 92 % of control | [8] 91 % of control

[O]=[Zr]
inactive: dose: 25.0 mg/kg/injection, schedule: Q04DX003 (ip), vehicle: Klucel (hydroxypropylcellulose) (HPC) 90 % of control | dose: 50.0 mg/kg/injection, schedule: Q04DX003 (ip), vehicle: Klucel (hydroxypropylcellulose) (HPC) 88 % of control | [9] 88 % of control

COC1OC2CSC(=S)OC2C(OC)C1OC (configuration not stated)
inactive: dose: 25.0 mg/kg/injection, schedule: Q04DX002 (ip), vehicle: saline 100 % of control | dose: 50.0 mg/kg/injection, schedule: Q04DX002 (ip), vehicle: saline 92 % of control | dose: 100.0 mg/kg/injection, schedule: Q04DX002 (ip), vehicle: saline 103 % of control | dose: 200.0 mg/kg/injection, schedule: Q04DX002 (ip), vehicle: saline 102 % of control | dose: 400.0 mg/kg/injection, schedule: Q04DX002 (ip), vehicle: saline 102 % of control

O=C(O)c1c(Cl)c(Cl)c(C(=O)O)c(Cl)c1Cl
inactive: [1] 95 % of control | [2] 93 % of control | [3] 89 % of control

CC(=O)/C=C/c1c[nH]c(=O)[nH]c1=O
inactive: dose: 100.0 mg/kg/injection, schedule: Q04DX002 (ip), vehicle: saline with Tween-80 104 % of control | dose: 200.0 mg/kg/injection, schedule: Q04DX002 (ip), vehicle: saline with Tween-80 104 % of control | [7] 93 % of control

C[n+]1c(/C=C/c2ccc3cccc(O)c3n2)ccc2cccc(O)c21
inactive: dose: 12.5 mg/kg/injection, schedule: Q01DX001 (ip), vehicle: saline 100 % of control | dose: 12.5 mg/kg/injection, schedule: Q01DX009 (ip), vehicle: saline with Tween-80 106 % of control | dose: 12.5 mg/kg/injection, schedule: Q04DX003 (ip), vehicle: saline 96 % of control | dose: 25.0 mg/kg/injection, schedule: Q01DX001 (ip), vehicle: saline 107 % of control | dose: 25.0 mg/kg/injection, schedule: Q01DX009 (ip), vehicle: saline with Tween-80 95 % of control | dose: 25.0 mg/kg/injection, schedule: Q04DX003 (ip), vehicle: saline 97 % of control | dose: 50.0 mg/kg/injection, schedule: Q01DX001 (ip), vehicle: saline 102 % of control | dose: 50.0 mg/kg/injection, schedule: Q04DX003 (ip), vehicle: saline 96 % of control

CCOC(=O)CNC(=O)Oc1ccc(NC(C)=O)cc1
inactive: [1] 100 % of control | [2] 95 % of control | [3] 108 % of control

CCCC(C)NNC(C)CCC (configuration not stated)
inactive: dose: 75.0 mg/kg/injection, schedule: Q01DX001 (ip), vehicle: acetone 96 % of control | dose: 75.0 mg/kg/injection, schedule: Q01DX001 (ip), vehicle: other 114 % of control | dose: 150.0 mg/kg/injection, schedule: Q01DX001 (ip), vehicle: acetone 101 % of control

COC(=O)C1C(C(=O)OC)C2(Cl)C(Cl)=C(Cl)C1(Cl)C2(Br)Br (configuration not stated)
inactive: [8] 101 % of control | dose: 100.0 mg/kg/injection, schedule: Q01DX009 (ip), vehicle: Klucel (hydroxypropylcellulose) (HPC) 104 % of control | [9] 104 % of control | [10] 104 % of control | dose: 200.0 mg/kg/injection, schedule: Q01DX009 (ip), vehicle: Klucel (hydroxypropylcellulose) (HPC) 101 % of control | dose: 200.0 mg/kg/injection, schedule: Q04DX003 (ip), vehicle: Klucel (hydroxypropylcellulose) (HPC) 100 % of control | [11] 97 % of control | dose: 400.0 mg/kg/injection, schedule: Q01DX009 (ip), vehicle: Klucel (hydroxypropylcellulose) (HPC) 97 % of control | dose: 400.0 mg/kg/injection, schedule: Q04DX003 (ip), vehicle: Klucel (hydroxypropylcellulose) (HPC) 104 % of control

C/C(=N/N)c1ccc(Br)cc1
inactive: dose: 3.7 mg/kg/injection, schedule: Q01DX009 (ip), vehicle: saline 107 % of control | dose: 5.0 mg/kg/injection, schedule: Q01DX001 (ip), vehicle: saline 94 % of control | dose: 7.5 mg/kg/injection, schedule: Q01DX009 (ip), vehicle: saline 119 % of control | dose: 10.0 mg/kg/injection, schedule: Q01DX001 (ip), vehicle: saline 97 % of control | dose: 20.0 mg/kg/injection, schedule: Q01DX001 (ip), vehicle: saline 113 % of control | dose: 25.0 mg/kg/injection, schedule: Q04DX003 (ip), vehicle: saline with Tween-80 105 % of control | dose: 40.0 mg/kg/injection, schedule: Q01DX001 (ip), vehicle: saline 122 % of control | dose: 50.0 mg/kg/injection, schedule: Q04DX003 (ip), vehicle: saline with Tween-80 110 % of control | dose: 80.0 mg/kg/injection, schedule: Q01DX001 (ip), vehicle: saline 105 % of control | [4] 93 % of control

COC1OC(CO)C(O)C(OC)C1OC (configuration not stated)
inactive: dose: 100.0 mg/kg/injection, schedule: Q04DX003 (ip), vehicle: saline 93 % of control | dose: 200.0 mg/kg/injection, schedule: Q04DX003 (ip), vehicle: saline 103 % of control | dose: 400.0 mg/kg/injection, schedule: Q04DX003 (ip), vehicle: saline 106 % of control

COc1ccc2c(c1OC)CCN1C3=C(CC(OC(=O)c4ccccc4)CC3)C(=O)CC21 (configuration not stated)
inactive: [8] 96 % of control | dose: 100.0 mg/kg/injection, schedule: Q01DX009 (ip), vehicle: saline sonified 93 % of control | [10] 94 % of control | dose: 200.0 mg/kg/injection, schedule: Q01DX009 (ip), vehicle: saline sonified 95 % of control | [11] 97 % of control | dose: 400.0 mg/kg/injection, schedule: Q01DX009 (ip), vehicle: saline sonified 93 % of control
